Source: ChEMBL document CHEMBL5729604, “Dihydrothieno[3,2-b]pyridine compounds” (2023)
pIC50: −log10 of the molar value.

Target: Flap endonuclease 1 (Homo sapiens, UniProt P39748)
Experiment: Enzymatic IC50 Assays: FEN1, EXO1 or XPG enzyme was incubated with compound or vehicle (DMSO) and the FAM-labeled DNA oligomer substrate in a microtiter plate. The stop buffer contains EDTA to stop the enzymatic reaction. The plate is read for fluorescence intensity. The high control (DMSO) with high fluorescence intensity represents no inhibition of enzymatic reaction while the low control (10 μM) with low fluorescence intensity represents full inhibition of enzymatic reaction.

Flap endonuclease 1, sequence (P39748 whole entry): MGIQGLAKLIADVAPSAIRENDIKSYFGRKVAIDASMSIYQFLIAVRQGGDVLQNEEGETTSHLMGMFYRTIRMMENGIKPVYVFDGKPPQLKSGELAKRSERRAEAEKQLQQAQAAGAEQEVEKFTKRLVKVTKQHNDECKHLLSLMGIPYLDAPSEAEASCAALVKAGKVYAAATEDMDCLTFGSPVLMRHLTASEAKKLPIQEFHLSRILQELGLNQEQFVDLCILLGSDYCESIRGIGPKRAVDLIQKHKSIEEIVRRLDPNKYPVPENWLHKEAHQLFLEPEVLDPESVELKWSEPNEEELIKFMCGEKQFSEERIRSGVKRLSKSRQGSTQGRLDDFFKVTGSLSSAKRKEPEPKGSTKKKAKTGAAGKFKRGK

pIC50 | Structure (SMILES)
> 6.70 | O=C(O)c1c(O)c(=O)n(Cc2cnc3ccccn23)c2ccsc12
> 6.70 | COc1cccc(-n2cc(Cn3c(=O)c(O)c(C(=O)O)c4sccc43)cn2)c1
> 6.70 | COc1ccc(Cn2cc(Cn3c(=O)c(O)c(C(=O)O)c4sccc43)cn2)cc1

Second part, the compound before the results:

Structure (SMILES) | pIC50
COc1ccc(Cn2c(=O)c(O)c(C(=O)O)c3sccc32)cn1 | > 6.70
Cc1c(Cn2c(=O)c(O)c(C(=O)O)c3sccc32)cnn1C | > 6.70
O=C(O)c1c(O)c(=O)n(Cc2cnn(-c3cccc(Cl)c3)c2)c2ccsc12 | > 6.70
